Assay results from ChEMBL document CHEMBL1201862, “PubChem BioAssay data set” (2004).
Active and inactive are the calls of the source.

Legend:
[1] = molecular target: T1, Aminopeptidase N (Plasmodium falciparum FcB1/Columbia, UniProt O96935); assay: malaria alanyl aminopeptidase activity blockers – biochemical, fluorogenic H-Leu-NHMec substrate, 1536-well (AID 1445); design: species or system Plasmodium falciparum 3D7, 3D7
T1 sequence (O96935 whole entry): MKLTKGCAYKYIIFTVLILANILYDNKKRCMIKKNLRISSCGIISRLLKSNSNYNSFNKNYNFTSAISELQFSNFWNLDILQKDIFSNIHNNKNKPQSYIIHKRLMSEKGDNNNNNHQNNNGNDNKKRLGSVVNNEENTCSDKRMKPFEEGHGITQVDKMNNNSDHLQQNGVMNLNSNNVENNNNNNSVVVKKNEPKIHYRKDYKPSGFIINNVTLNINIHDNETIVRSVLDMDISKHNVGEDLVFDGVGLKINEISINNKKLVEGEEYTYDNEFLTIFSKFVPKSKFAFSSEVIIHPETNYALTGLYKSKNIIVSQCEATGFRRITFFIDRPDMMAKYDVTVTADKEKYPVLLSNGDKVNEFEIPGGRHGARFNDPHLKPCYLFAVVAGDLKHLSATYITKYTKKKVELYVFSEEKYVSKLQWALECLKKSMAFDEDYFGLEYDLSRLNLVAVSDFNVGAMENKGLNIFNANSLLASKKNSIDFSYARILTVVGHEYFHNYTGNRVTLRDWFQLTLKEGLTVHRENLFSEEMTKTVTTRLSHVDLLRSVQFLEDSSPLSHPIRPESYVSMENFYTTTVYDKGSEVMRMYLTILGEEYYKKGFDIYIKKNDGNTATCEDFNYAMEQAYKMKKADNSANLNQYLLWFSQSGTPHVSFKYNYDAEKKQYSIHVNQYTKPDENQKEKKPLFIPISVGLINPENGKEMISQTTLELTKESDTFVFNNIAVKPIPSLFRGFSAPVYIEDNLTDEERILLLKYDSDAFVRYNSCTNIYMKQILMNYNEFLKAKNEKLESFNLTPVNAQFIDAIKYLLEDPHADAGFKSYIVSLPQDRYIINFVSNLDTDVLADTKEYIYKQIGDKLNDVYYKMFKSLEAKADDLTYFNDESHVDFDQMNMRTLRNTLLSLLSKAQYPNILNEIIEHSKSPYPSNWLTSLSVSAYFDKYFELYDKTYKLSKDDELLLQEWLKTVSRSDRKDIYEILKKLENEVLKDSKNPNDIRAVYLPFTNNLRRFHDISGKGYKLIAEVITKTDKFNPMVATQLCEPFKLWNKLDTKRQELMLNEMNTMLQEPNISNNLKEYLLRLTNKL

[2] = molecular target: Eukaryotic translation initiation factor 4H (Homo sapiens, UniProt Q15056); assay: eIF4H binding inhibition – biochemical, uHTS, fluorescence polarization, translation initiation inhibitor project, primary screen (AID 2012)
[3] = molecular target: Polyadenylate-binding protein 1 (Homo sapiens, UniProt P11940); assay: blockers of PABP interaction with poly(A) – biochemical, fluorescence polarization, […] (AID 2014)
[4] = molecular target: T2, Alkaline phosphatase, tissue-nonspecific isozyme (Homo sapiens, UniProt P05186); assay: potency against alkaline phosphatase TNAP – biochemical, luminescent, dose response, SAR follow-up (AID 1056)
T2 sequence (P05186 whole entry): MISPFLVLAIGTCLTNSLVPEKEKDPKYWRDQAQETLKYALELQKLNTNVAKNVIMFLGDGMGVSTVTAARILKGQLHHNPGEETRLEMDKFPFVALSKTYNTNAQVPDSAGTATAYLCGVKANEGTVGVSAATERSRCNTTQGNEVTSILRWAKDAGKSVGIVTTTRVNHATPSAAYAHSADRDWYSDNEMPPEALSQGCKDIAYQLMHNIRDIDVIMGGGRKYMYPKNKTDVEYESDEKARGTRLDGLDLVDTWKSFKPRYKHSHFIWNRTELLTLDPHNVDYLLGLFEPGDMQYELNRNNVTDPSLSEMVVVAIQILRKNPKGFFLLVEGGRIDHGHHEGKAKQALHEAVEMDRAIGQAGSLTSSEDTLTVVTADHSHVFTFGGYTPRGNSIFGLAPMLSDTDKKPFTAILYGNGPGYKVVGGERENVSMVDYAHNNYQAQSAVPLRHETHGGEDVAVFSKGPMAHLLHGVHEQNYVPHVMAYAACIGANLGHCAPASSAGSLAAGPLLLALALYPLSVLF

[5] = molecular target: Alkaline phosphatase, placental type (Homo sapiens, UniProt P05187); assay: human placental alkaline phosphatase inhibition – biochemical, luminescence, confirmation (AID 1512); assay type: functional
[6] = molecular target: Glyceraldehyde-3-phosphate dehydrogenase (Homo sapiens, UniProt P04406)
[7] = Luminescence Cell-Based Dose Confirmation HTS to Identify Activators of 5'UTR Stem-Loop Driven Alpha-Synuclein mRNA Translation in H4 Neuroglioblastoma Cells. [Related pubchem assays: 1829 (Project Summary), 1814 (Primary HTS)]; assay type: functional
[8] = molecular target: Genome polyprotein (dengue virus type 2, UniProt P29990); assay: flavivirus cap methylation enzyme inhibition – biochemical, confirmation dose response, primary screen (AID 588689); assay type: functional
[9] = NIH3T3 cell viability loss – ATP luminescence, mouse fibroblasts, counter-screen, dose response (AID 2010); assay type: functional, cell-based;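 further: cells exposed to compound for about 90 hours before reading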
[10] = viability of uninfected HEp-2 cells – cell-based, HTS, cytotoxicity control for RSV inhibitor project, dose response (AID 2410); assay type: functional; conditions: human respiratory syncytial virus
[11] = cells
[12] = Luminescence Cell-Based Dose Response HTS to Identify Activators of Luciferase Translation or Activity in H4 […] Cells. [Related pubchem assays: 1829 (Project Summary), 1814 (Primary HTS)]; assay type: functional
[13] = tested on: H4; assay: Luminescence Cell-Based Dose Response HTS to Identify Activators of 5'UTR Stem-Loop Driven Prion Protein mRNA Translation in H4 Neuroglioblastoma Cells. [Related pubchem assays: 1829 (Project Summary), 1814 (Primary HTS)]; assay type: functional; conditions: Homo sapiens
[14] = Trypanosoma cruzi growth suppression in host cells – NIH3T3 host cells, beta-gal luminescence, confirmation (AID 2044); assay type: functional, cell-based;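 further: intracellular parasites grown in NIH/3T3 mouse fibroblasts as host cells; luminescent beta-galactosidase reporter signal from transgenic T. cruzi replicating inside host cells; inhibitors lower the luminescence signal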
[15] = molecular target: DNA dC->dU-editing enzyme APOBEC-3A (Homo sapiens, UniProt P31941); assay: Dose Response confirmation of small molecule APOBEC3A DNA Deaminase Inhibitors via a fluorescence-based single-stranded DNA deaminase assay. [Related pubchem assays (depositor defined):AID493011, AID493024]; assay type: functional
[16] = molecular target: DNA dC->dU-editing enzyme APOBEC-3G (Homo sapiens, UniProt Q9HC16); assay type: functional;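 further: Dose-response counterscreen measuring inhibition of APOBEC3G DNA deaminase activity, run while confirming APOBEC3A inhibitors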
[17] = molecular target: T3, Short transient receptor potential channel 4 (Mus musculus, UniProt Q9QUQ5); assay: block of DAMGO-driven TRPC4 calcium entry – cell-based, HEK293 TRPC4/mu-opioid, Fluo-4 calcium, dose response (AID 434942); assay type: functional;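 further: potency of inhibitors blocking the TRPC4 calcium response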
T3 sequence (Q9QUQ5 whole entry): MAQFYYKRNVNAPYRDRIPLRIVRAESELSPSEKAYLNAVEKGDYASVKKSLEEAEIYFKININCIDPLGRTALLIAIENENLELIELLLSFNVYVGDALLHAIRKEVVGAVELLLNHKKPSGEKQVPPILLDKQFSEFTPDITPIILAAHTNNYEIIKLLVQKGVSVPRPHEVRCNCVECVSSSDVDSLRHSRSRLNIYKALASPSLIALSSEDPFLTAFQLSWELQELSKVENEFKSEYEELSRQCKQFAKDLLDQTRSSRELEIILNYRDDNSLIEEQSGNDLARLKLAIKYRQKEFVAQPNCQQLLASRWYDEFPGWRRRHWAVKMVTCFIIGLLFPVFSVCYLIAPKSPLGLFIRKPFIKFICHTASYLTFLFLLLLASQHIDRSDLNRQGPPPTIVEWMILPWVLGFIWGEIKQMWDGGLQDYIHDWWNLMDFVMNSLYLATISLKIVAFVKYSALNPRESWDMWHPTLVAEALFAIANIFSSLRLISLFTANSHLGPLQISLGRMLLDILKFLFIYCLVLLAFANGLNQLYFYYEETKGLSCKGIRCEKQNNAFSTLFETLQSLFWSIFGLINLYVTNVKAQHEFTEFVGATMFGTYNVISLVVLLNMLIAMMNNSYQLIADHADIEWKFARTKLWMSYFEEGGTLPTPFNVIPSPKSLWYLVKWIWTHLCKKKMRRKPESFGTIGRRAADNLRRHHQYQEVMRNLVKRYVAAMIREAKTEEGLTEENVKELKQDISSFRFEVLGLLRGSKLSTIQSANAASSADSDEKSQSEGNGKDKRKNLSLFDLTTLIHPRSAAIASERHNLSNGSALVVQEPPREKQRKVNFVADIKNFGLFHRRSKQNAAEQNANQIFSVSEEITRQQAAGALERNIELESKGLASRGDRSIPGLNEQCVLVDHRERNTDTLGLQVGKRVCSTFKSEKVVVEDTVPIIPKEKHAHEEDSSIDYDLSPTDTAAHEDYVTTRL

[18] = molecular target: T4, X-box-binding protein 1 (Homo sapiens, UniProt P17861); assay type: functional, Cricetulus griseus;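 further: confirmatory dose-response counter-screen serving a CHOP assay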
T4 sequence (P17861 whole entry): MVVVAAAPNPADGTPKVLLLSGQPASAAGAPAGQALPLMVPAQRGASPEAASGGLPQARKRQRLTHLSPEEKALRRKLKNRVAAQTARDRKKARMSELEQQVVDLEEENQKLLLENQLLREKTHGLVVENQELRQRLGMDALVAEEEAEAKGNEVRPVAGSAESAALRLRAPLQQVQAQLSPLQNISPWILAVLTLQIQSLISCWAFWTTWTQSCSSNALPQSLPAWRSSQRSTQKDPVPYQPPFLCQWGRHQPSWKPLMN

[19] = A Cell Based Secondary Assay To Explore Cytotoxicity of Compounds that Sensitize Mycobacterium Tuberculosis to Beta-Lactam Antibiotics.; assay type: functional
[20] = fluconazole-exposed Candida albicans growth modulators – fluorescence, retest, confirmation (AID 2467); assay type: functional, cell-based
[21] = NIH-3T3 fibroblast cytotoxicity, dose response, cytotoxicity control, cell-based, fluorescence, Alamar Blue, secondary assay (AID 2327); assay type: functional;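 further: NIH-3T3 mouse fibroblasts cultured with fluconazole at 8 µg/mL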
[22] = Luminescence Cell-Based Dose Retest to Confirm Inhibitors of Cancer Stem Cells. [Related pubchem assays (depositor defined):AID2717, AID2721]; assay type: functional; conditions: Homo sapiens
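Wherever AC50 is given: cells exposed to compound for roughly 70 hours or longer before luminescence read.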

Polyadenylate-binding protein 1, sequence (P11940 whole entry): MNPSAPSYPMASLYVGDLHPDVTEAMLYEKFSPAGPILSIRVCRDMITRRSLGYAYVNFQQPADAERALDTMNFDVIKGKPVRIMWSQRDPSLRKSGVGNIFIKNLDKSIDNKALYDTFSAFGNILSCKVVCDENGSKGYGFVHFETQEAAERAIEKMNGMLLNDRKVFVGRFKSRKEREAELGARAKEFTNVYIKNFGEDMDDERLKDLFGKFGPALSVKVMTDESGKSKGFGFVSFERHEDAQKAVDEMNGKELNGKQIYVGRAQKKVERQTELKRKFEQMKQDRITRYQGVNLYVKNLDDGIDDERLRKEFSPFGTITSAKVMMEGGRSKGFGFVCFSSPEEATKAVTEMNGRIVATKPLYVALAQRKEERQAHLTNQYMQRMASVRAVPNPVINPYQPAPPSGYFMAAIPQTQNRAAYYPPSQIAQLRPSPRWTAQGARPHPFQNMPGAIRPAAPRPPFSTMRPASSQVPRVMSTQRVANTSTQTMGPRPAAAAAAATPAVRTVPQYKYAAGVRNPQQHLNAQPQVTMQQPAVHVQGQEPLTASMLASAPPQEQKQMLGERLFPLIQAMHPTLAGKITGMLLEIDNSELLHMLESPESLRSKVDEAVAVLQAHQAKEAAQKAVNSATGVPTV
Alkaline phosphatase, placental type, sequence (P05187 whole entry): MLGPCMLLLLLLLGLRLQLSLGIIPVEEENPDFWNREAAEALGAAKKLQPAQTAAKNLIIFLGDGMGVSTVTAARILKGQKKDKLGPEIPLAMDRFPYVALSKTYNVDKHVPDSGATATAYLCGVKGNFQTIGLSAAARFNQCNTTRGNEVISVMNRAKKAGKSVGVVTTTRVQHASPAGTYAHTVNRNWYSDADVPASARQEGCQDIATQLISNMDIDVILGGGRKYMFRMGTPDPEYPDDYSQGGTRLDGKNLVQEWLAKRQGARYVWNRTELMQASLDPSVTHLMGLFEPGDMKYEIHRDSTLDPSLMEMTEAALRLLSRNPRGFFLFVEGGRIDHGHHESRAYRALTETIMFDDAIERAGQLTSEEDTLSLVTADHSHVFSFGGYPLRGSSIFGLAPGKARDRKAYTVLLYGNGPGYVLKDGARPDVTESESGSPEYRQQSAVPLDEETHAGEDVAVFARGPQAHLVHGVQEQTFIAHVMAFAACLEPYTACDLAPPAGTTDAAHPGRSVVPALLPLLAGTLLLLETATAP
Glyceraldehyde-3-phosphate dehydrogenase, sequence (P04406 whole entry): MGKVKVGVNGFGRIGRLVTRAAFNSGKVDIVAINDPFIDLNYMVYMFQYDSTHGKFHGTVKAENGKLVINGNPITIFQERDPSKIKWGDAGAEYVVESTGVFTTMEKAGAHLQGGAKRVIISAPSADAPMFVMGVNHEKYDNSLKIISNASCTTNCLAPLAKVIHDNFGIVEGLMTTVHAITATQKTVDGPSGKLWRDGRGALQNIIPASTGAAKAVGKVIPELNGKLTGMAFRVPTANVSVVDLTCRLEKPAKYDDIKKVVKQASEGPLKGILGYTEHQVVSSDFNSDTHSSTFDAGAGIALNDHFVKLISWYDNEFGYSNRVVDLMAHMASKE
DNA dC->dU-editing enzyme APOBEC-3G, sequence (Q9HC16 whole entry): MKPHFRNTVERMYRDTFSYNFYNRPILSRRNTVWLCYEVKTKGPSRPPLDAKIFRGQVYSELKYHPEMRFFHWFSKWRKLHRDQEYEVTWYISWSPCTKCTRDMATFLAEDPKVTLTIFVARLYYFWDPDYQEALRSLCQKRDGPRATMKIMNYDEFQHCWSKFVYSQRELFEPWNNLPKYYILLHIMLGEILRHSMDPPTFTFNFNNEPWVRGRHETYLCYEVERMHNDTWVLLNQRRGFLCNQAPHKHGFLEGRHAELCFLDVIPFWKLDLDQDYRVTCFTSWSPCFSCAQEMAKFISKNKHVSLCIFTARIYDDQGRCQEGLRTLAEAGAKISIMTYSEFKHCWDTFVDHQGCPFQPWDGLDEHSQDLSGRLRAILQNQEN
DNA dC->dU-editing enzyme APOBEC-3A, sequence (P31941 whole entry): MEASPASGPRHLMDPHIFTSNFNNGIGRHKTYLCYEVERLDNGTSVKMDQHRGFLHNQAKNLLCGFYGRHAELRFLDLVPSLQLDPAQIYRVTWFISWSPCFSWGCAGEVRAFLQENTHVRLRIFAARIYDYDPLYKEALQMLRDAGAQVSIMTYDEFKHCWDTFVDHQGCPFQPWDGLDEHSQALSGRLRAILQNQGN
Genome polyprotein, sequence (P29990 2492-3391 limits assumed): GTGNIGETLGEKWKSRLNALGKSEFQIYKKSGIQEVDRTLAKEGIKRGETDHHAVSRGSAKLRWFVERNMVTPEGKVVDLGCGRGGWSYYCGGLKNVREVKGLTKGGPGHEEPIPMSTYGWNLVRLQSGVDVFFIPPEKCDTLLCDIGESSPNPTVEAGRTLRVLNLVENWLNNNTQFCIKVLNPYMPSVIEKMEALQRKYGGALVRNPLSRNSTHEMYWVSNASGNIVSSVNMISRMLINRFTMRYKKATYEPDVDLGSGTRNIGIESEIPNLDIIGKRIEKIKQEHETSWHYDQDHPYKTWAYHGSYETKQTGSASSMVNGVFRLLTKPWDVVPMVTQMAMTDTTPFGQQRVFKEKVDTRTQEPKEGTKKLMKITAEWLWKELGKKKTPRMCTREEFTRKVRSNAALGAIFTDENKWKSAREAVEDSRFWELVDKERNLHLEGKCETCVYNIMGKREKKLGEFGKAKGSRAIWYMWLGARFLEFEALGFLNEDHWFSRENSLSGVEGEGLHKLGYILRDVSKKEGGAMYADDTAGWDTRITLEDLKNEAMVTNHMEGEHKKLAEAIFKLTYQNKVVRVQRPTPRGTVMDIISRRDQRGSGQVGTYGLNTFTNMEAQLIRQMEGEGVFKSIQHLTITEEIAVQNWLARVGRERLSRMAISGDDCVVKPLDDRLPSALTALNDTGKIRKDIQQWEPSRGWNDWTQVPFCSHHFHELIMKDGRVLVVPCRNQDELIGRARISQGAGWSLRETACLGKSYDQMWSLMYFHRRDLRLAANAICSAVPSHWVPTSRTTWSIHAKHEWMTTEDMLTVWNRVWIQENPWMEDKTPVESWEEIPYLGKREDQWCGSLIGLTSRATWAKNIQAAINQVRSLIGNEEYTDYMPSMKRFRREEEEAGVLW

In the case of `Cc1ccc(C(=O)NCC(=O)OCC(=O)NC(C)c2ccccc2)s1` (stereo unspecified), the IC50 [1] is reported as 39.6 µM (active).
For `CC1=CC(C)C(CN(CCC[N+](C)(C)C)C(=O)Nc2ccccc2)C(C)C1` (stereo unspecified), the IC50 [2] was > 100 µM (inactive) and the IC50 [3] was 4.08 µM (active).
In the case of `Cc1[nH]c2ccccc2c1/C=C1\SC(=S)N(c2cccc(C(=O)O)c2)C1=O`, the IC50 [1] is reported as 55.9 µM (active).
With `COc1ccc(-c2nc3c4cnn(C)c4ncn3n2)cc1` the IC50 [4] was > 100 µM (inactive), the IC50 [5] was > 100 µM (inactive) and the IC50 [6] was > 100 µM (not active).
With `O=C(NC(=S)Nc1ccccc1C(=O)O)c1ccc(-c2ccc(Br)cc2)o1` the EC50 [7] was 71.2 µM (active), the IC50 [8] was 42.2 µM (active) and the EC50 [9] was > 60 µM (not active). For the same compound, the CC50 [10] was 19 µM (active), the IC50 [11] was 6.21 µM (active) and the EC50 [12] was 12.5 µM (active). The EC50 [13] was 22.1 µM (active) and the EC50 [14] was 2.13 µM (active).
In the case of `COC(=O)CCCCCCCCC(O)C[N+]1(C)CCOCC1` (stereo unspecified), the IC50 [15] is reported as 2.36 µM (active), the IC50 [2] is reported as > 100 µM (inactive) and the IC50 [16] is reported as 3.49 µM (active). For the same compound, the IC50 [3] was 2.48 µM (active).
With `CC1(C)CC2CC(C)(CN2CC(O)COc2ccccc2)C1` (stereo unspecified) the EC50 [17] was 1.88 µM (active).
With `Cn1c(=O)cc(SCC(=O)NCCC2=CCCCC2)c2ccc(Cl)cc21` the “Absolute IC50 (XBP1)” value [18] was 10 µM.
With `CCCCCCCCCCSc1nnc(NC(C)=O)[nH]1` the IC50 [5] was > 100 µM (inactive).
With `C[C@H]1C=CC(=O)O[C@H]1c1ccccc1` the CC50 [19] was 22.9 µM (active).
In the case of `CCn1c(SCC(=O)NCc2ccccc2)nnc1C(CO)NC(=O)c1ccccc1` (stereo unspecified), the IC50 [15] is reported as 3.67 µM (active), the IC50 [2] is reported as > 100 µM (inactive) and the IC50 [16] is reported as 4.48 µM (active). The IC50 [3] was 6.06 µM (active).
For `NNC(=O)Cn1c(-c2nonc2N)nc2ccccc21`, the IC50 [1] was 58.2 µM (active).
With `COC(=O)c1c(C)n(-c2ccccc2)c2ccc(O)cc12` the EC50 [20] was > 38 µM (not active), the EC50 [21] was 2.59 µM (inconclusive) and the CC50 [19] was > 40 µM (active).
For `O=C(c1ccc2c(c1)OCO2)C1CCCN(Cc2ccccc2OC(F)F)C1` (stereo unspecified), the EC50 [17] was 2.99 µM (active).
For `CCOC(=O)N1CCC(n2c(=S)[nH]c3cc(OCC)c(OCC)cc3c2=O)CC1`, the “Absolute IC50 (XBP1)” value [18] was 10 µM.
For `OCCCNc1cc(-c2ccccc2)nc2cc(-c3ccc(F)cc3)nn12`, the AC50 [22] was 6.05 µM (active), the CC50 [10] was > 50 µM (active) and the IC50 [11] was 22.4 µM (active).
For `CCCCCC(=O)Nc1cccc(C2=NOC3(C2)C[C@@H](C(N)=O)N(C(=O)CC(c2ccccc2)c2ccccc2)C3)c1` (stereo partly specified), the EC50 [9] was > 60 µM (not active), the EC50 [14] was 0.396 µM (active) and the CC50 [19] was > 40 µM (active).
In the case of `COCCCNc1cc(C)nc2ccccc12`, the EC50 [17] is reported as 3.76 µM (active).
In the case of `COc1ccc(/C=N/Nc2nc(-c3ccc(C)cc3)c(NC(C)=O)s2)cc1`, the CC50 [19] is reported as > 40 µM (active).
With `CC[N+](C)(CC)CCC/C(=N/O)C(O)(c1ccccc1)c1ccccc1` the IC50 [2] was > 100 µM (inactive) and the IC50 [3] was 5.57 µM (active).
With `O=C(c1cc(-c2ccc(Cl)cc2Cl)n[nH]1)N1CCN(CCO)CC1` the IC50 [5] was > 100 µM (inactive) and the IC50 [6] was > 100 µM (not active).
In the case of `CC(=O)OC[C@]12CCC(C)=C[C@H]1O[C@@H]1[C@H](O)[C@@H](OC(C)=O)[C@@]2(C)[C@]12CO2` [ANGUIDIN], the “Absolute IC50 (XBP1)” value [18] is reported as 0.16 µM.
